Tested on: FGFR3 enzyme
Assay: FGFR Enzymatic Assay (FRET peptide phosphorylation), FGFR3
Assay type: biochemical
Settings: IC50 ratio showing FGFR3 selectivity; Table 2A, pre-incubated for 4 hours
Method: The inhibitor potency of the exemplified compounds was measured in an enzyme assay that measures peptide phosphorylation using FRET measurements to detect product formation. Inhibitors were serially diluted in DMSO and a volume of 0.5 μL was transferred to the wells of a 384-well plate.
GraphPad prism3 was used to analyze the data.

Row | SMILES | FGFR1/FGFR3 | FGFR4/FGFR3
1 | CCCN1C(=O)N(c2c(F)c(OC)cc(OC)c2F)Cc2cnc(-c3cn(C)nc3C)cc21 [Example 30, 3-(2,6-difluoro-3,5-dimethoxyphenyl)-7-(1,3-dimethyl-1H-pyrazol-4-yl)-1-propyl-3,4-dihydropyrido[4,3-d]pyrimidin-2(1H)-one] | >1 | >5
2 | COc1cc(OC)c(F)c(N2Cc3cnc(-c4cn(CC(=O)N5CCOCC5)nc4C)cc3C3(CC3)C2=O)c1F [Example 159, 2′-(2,6-difluoro-3,5-dimethoxyphenyl)-6′-(3-methyl-1-(2-morpholino-2-oxoethyl)-1H-pyrazol-4-yl)-1′H-spiro[cyclopropane-1,4′-[2,7]naphthyridin]-3′(2′H)-one] | >5 | >3
3 | COc1cc(OC)c(F)c(N2Cc3cnc(-c4cn(C)nc4C)cc3N(c3ccc4ccncc4c3)C2=O)c1F [Example 63, 3-(2,6-difluoro-3,5-dimethoxyphenyl)-7-(1,3-dimethyl-1H-pyrazol-4-yl)-1-(isoquinolin-7-yl)-3,4-dihydropyrido[4,3-d]pyrimidin-2(1H)-one] | >10 | >5
4 | COc1cc(OC)c(F)c(N2Cc3cnc(-c4cn(C)nc4C)cc3N(c3ccc4nc(C)oc4c3)C2=O)c1F [Example 75, 3-(2,6-difluoro-3,5-dimethoxyphenyl)-7-(1,3-dimethyl-1H-pyrazol-4-yl)-1-(2-methylbenzo[d]oxazol-6-yl)-3,4-dihydropyrido[4,3-d]pyrimidin-2(1H)-one] | >5 | >3
5 | COC(=O)N1CCC(N2C(=O)N(c3c(F)c(OC)cc(OC)c3F)Cc3cnc(-c4cn(C)nc4C)cc32)CC1 [Example 122, Methyl 4-(3-(2,6-difluoro-3,5-dimethoxyphenyl)-7-(1,3-dimethyl-1H-pyrazol-4-yl)-2-oxo-3,4-dihydropyrido[4,3-d]pyrimidin-1(2H)-yl)piperidine-1-carboxylate] | >5 | >5
6 | COc1cc(OC)c(F)c(N2Cc3cnc(-c4cn(C)nc4C)cc3N(c3ccc(C#N)cn3)C2=O)c1F [Example 79, 6-(3-(2,6-difluoro-3,5-dimethoxyphenyl)-7-(1,3-dimethyl-1H-pyrazol-4-yl)-2-oxo-3,4-dihydropyrido[4,3-d]pyrimidin-1(2H)-yl)nicotinonitrile] | >5 | >3
7 | CCc1nnc(CN2C(=O)N(c3c(F)c(OC)cc(OC)c3F)Cc3cnc(-c4cn(C)nc4C)cc32)o1 [Example 67, 3-(2,6-difluoro-3,5-dimethoxyphenyl)-7-(1,3-dimethyl-1H-pyrazol-4-yl)-1-((5-ethyl-1,3,4-oxadiazol-2-yl)methyl)-3,4-dihydropyrido[4,3-d]pyrimidin-2(1H)-one] | >5 | >10
8 | COc1cc(OC)c(F)c(N2Cc3cnc(-c4cn(C)nc4C)cc3N(Cc3ccc(F)c(F)c3)C2=O)c1F [Example 73, 3-(2,6-difluoro-3,5-dimethoxyphenyl)-1-(3,4-difluorobenzyl)-7-(1,3-dimethyl-1H-pyrazol-4-yl)-3,4-dihydropyrido[4,3-d]pyrimidin-2(1H)-one] | >5 | >10
9 | COc1cc(OC)c(F)c(N2Cc3cnc(-c4cn(C)nc4C)cc3N(c3ccc(F)c(F)c3)C2=O)c1F [Example 102, 3-(2,6-difluoro-3,5-dimethoxyphenyl)-1-(3,4-difluorophenyl)-7-(1,3-dimethyl-1H-pyrazol-4-yl)-3,4-dihydropyrido[4,3-d]pyrimidin-2(1H)-one] | >3 | >10
10 | COc1cc(OC)c(F)c(N2Cc3cnc(-c4cn(C)nc4C)cc3N(Cc3nnc(C)o3)C2=O)c1F [Example 46, 3-(2,6-difluoro-3,5-dimethoxyphenyl)-7-(1,3-dimethyl-1H-pyrazol-4-yl)-1-[(5-methyl-1,3,4-oxadiazol-2-yl)methyl]-3,4-dihydropyrido[4,3-d]pyrimidin-2(1H)-one] | >10 | >10
11 | COc1cc(OC)c(F)c(N2Cc3cnc(-c4cn(C)nc4C)cc3N(c3ccc(-n4cccn4)cc3)C2=O)c1F [Example 77, 1-(4-(1H-pyrazol-1-yl)phenyl)-3-(2,6-difluoro-3,5-dimethoxyphenyl)-7-(1,3-dimethyl-1H-pyrazol-4-yl)-3,4-dihydropyrido[4,3-d]pyrimidin-2(1H)-one] | >5 | >10
12 | CCN1C(=O)N(c2c(F)c(OC)cc(OC)c2F)Cc2cnc(-c3ccc(C(N)=O)nc3)cc21 [Example 184, 5-(3-(2,6-difluoro-3,5-dimethoxyphenyl)-1-ethyl-2-oxo-1,2,3,4-tetrahydropyrido[4,3-d]pyrimidin-7-yl)picolinamide] | >5 | >5
13 | COc1cc(OC)c(F)c(N2Cc3cnc(-c4cn(C)nc4C)cc3N(Cc3ccnc(C)c3)C2=O)c1F [Example 68, 3-(2,6-difluoro-3,5-dimethoxyphenyl)-7-(1,3-dimethyl-1H-pyrazol-4-yl)-1-((2-methylpyridin-4-yl)methyl)-3,4-dihydropyrido[4,3-d]pyrimidin-2(1H)-one] | >5 | >5
14 | CCn1cc(CN2C(=O)N(c3c(F)c(OC)cc(OC)c3F)Cc3cnc(-c4cn(C)nc4C)cc32)cn1 [Example 39, 3-(2,6-difluoro-3,5-dimethoxyphenyl)-7-(1,3-dimethyl-1H-pyrazol-4-yl)-1-((1-ethyl-1H-pyrazol-4-yl)methyl)-3,4-dihydropyrido[4,3-d]pyrimidin-2(1H)-one] | >10 | >10
15 | COc1cc(OC)c(F)c(N2Cc3cnc(-c4ccncc4)cc3C3(CC3)C2=O)c1F [Example 185, 2′-(2,6-difluoro-3,5-dimethoxyphenyl)-6′-(pyridin-4-yl)-1′H-spiro[cyclopropane-1,4′-[2,7]naphthyridin]-3′(2′H)-one] | >3 | >3
16 | CNC(=O)c1ccc(-c2cc3c(cn2)CN(c2c(F)c(OC)cc(OC)c2F)C(=O)C32CC2)cn1 [Example 18, 5-(2′-(2,6-difluoro-3,5-dimethoxyphenyl)-3′-oxo-2′,3′-dihydro-1′H-spiro[cyclopropane-1,4′-[2,7]naphthyridine]-6′-yl)-N-methylpicolinamide] | >5 | 
17 | COc1cc(OC)c(F)c(N2Cc3cnc(-c4cn(C)nc4C)cc3N(c3cnc(C)cn3)C2=O)c1F [Example 107, 3-(2,6-difluoro-3,5-dimethoxyphenyl)-7-(1,3-dimethyl-1H-pyrazol-4-yl)-1-(5-methylpyrazin-2-yl)-3,4-dihydropyrido[4,3-d]pyrimidin-2(1H)-one] | >3 | >10
18 | COc1cc(CN2C(=O)N(c3c(F)c(OC)cc(OC)c3F)Cc3cnc(-c4cn(C)nc4C)cc32)ccn1 [Example 58, 3-(2,6-difluoro-3,5-dimethoxyphenyl)-7-(1,3-dimethyl-1H-pyrazol-4-yl)-1-((2-methoxypyridin-4-yl)methyl)-3,4-dihydropyrido[4,3-d]pyrimidin-2(1H)-one] | >10 | >10
19 | COc1cc(OC)c(F)c(N2Cc3cnc(-c4cnn(C5CCN(C(C)=O)C5)c4)cc3C3(CC3)C2=O)c1F (stereo not shown) [Example 150, 6′-(1-(1-acetylpyrrolidin-3-yl)-1H-pyrazol-4-yl)-2′-(2,6-difluoro-3,5-dimethoxyphenyl)-1′H-spiro[cyclopropane-1,4′-[2,7]naphthyridin]-3′(2′H)-one] | >5 | >5
